# Measurements published in ChEMBL document CHEMBL1125035, “Synthesis and biological activity of novel vitamin D analogues: 24,24-difluoro-25-hydroxy-26,27-dimethylvitamin D3 and 24,24-difluoro-1 alpha,25-dihydroxy-26,27-dimethylvitamin D3” (1990).
# Assays:
# Rattus norvegicus [1] = experiment: Ability to stimulate intestinal-calcium transport by the administration of compound in rats at a concentration of 50 pmol at 4 hr.; assay type: functional, Intestine
# Rattus norvegicus [2] = experiment: Ability to mobilize Bone-Calcium transport, following the administration of compound in rats at a concentration of 5 pmol at 4 hr.; assay type: functional, organism-based
# Rattus norvegicus [3] = experiment: Ability to mobilize Bone-Calcium transport, following the administration of compound in rats at a concentration of 5 pmol at 69 hr.; assay type: functional, organism-based
# Rattus norvegicus [4] = experiment: Ability to stimulate intestinal-calcium transport by the administration of compound in rats at a concentration of 5000 pmol at 12 hr.; assay type: functional, Intestine
# Rattus norvegicus [5] = experiment: Ability to stimulate intestinal-calcium transport by the administration of compound in rats at a concentration of 5000 pmol at 24 hr.; assay type: functional, Intestine
# Rattus norvegicus [6] = experiment: Ability to mobilize Bone-Calcium transport, following the administration of compound in rats at a concentration of 5000 pmol at 4 hr.; assay type: functional, organism-based
# Rattus norvegicus [7] = experiment: Ability to mobilize Bone-Calcium transport, following the administration of compound in rats at a concentration of 5000 pmol at 69 hr.; assay type: functional, organism-based
# Rattus norvegicus [8] = experiment: Ability to mobilize Bone-Calcium transport, following the administration of compound in rats at a concentration of 500 pmol at 24 hr.; assay type: functional, organism-based
# Rattus norvegicus [9] = experiment: Ability to mobilize Bone-Calcium transport, following the administration of compound in rats at a concentration of 500 pmol at 2 hr.; assay type: functional, organism-based
# Rattus norvegicus [10] = experiment: Ability to mobilize Bone-Calcium transport, following the administration of compound in rats at a concentration of 500 pmol at 4 hr.; assay type: functional, organism-based
# Rattus norvegicus [11] = experiment: Ability to mobilize Bone-Calcium transport, following the administration of compound in rats at a concentration of 50 pmol at 24 hr.; assay type: functional, organism-based
# Rattus norvegicus [12] = experiment: Ability to mobilize Bone-Calcium transport, following the administration of compound in rats at a concentration of 50 pmol at 2 hr.; assay type: functional, organism-based
# Rattus norvegicus [13] = experiment: Ability to mobilize Bone-Calcium transport, following the administration of compound in rats at a concentration of 50 pmol at 4 hr.; assay type: functional, organism-based
# Rattus norvegicus [14] = experiment: Ability to mobilize Bone-Calcium transport, following the administration of compound in rats at a concentration of 5 pmol at 12 hr.; assay type: functional, organism-based
# Rattus norvegicus [15] = experiment: Ability to mobilize Bone-Calcium transport, following the administration of compound in rats at a concentration of 5 pmol at 24 hr.; assay type: functional, organism-based
# Rattus norvegicus [16] = experiment: Ability to mobilize Bone-Calcium transport, following the administration of compound in rats at a concentration of 5 pmol at 2 hr.; assay type: functional, organism-based
# Rattus norvegicus [17] = experiment: Ability to stimulate intestinal-calcium transport by the administration of compound in rats at a concentration of 5 pmol at 24 hr.; assay type: functional, Intestine
# Rattus norvegicus [18] = experiment: Ability to stimulate intestinal-calcium transport by the administration of compound in rats at a concentration of 5 pmol at 2 hr.; assay type: functional, Intestine
# Rattus norvegicus [19] = experiment: Ability to stimulate intestinal-calcium transport by the administration of compound in rats at a concentration of 5 pmol at 4 hr.; assay type: functional, Intestine
# Rattus norvegicus [20] = experiment: Ability to stimulate intestinal-calcium transport by the administration of compound in rats at a concentration of 50 pmol at 24 hr.; assay type: functional, Intestine
# Rattus norvegicus [21] = experiment: Ability to stimulate intestinal-calcium transport by the administration of compound in rats at a concentration of 5000 pmol at 2 hr.; assay type: functional, Intestine
# Rattus norvegicus [22] = experiment: Ability to stimulate intestinal-calcium transport by the administration of compound in rats at a concentration of 5000 pmol at 4 hr.; assay type: functional, Intestine
# Rattus norvegicus [23] = experiment: Ability to stimulate intestinal-calcium transport by the administration of compound in rats at a concentration of 5000 pmol at 69 hr.; assay type: functional, Intestine
# Rattus norvegicus [24] = experiment: Ability to stimulate intestinal-calcium transport by the administration of compound in rats at a concentration of 500 pmol at 24 hr.; assay type: functional, Intestine
# Rattus norvegicus [25] = experiment: Ability to stimulate intestinal-calcium transport by the administration of compound in rats at a concentration of 500 pmol at 2 hr.; assay type: functional, Intestine
# Rattus norvegicus [26] = experiment: Ability to stimulate intestinal-calcium transport by the administration of compound in rats at a concentration of 500 pmol at 4 hr.; assay type: functional, Intestine
# Rattus norvegicus [27] = experiment: Ability to mobilize Bone-Calcium transport, following the administration of compound in rats at a concentration of 5000 pmol at 24 hr.; assay type: functional, organism-based
# Rattus norvegicus [28] = experiment: Ability to mobilize Bone-Calcium transport, following the administration of compound in rats at a concentration of 5000 pmol at 2 hr.; assay type: functional, organism-based
# Gallus gallus = organism: Gallus gallus; experiment: Bind to chick intestinal Vitamin D3 receptor for 1,25-(OH)2-D3
# [29] = biological target: T1, Vitamin D-binding protein (Rattus norvegicus) (UniProt P04276); experiment: Displacement of [3H]25-(OH)-D3 from rat plasma Vitamin D binding protein; assay type: cell-free
# T1 sequence (whole entry): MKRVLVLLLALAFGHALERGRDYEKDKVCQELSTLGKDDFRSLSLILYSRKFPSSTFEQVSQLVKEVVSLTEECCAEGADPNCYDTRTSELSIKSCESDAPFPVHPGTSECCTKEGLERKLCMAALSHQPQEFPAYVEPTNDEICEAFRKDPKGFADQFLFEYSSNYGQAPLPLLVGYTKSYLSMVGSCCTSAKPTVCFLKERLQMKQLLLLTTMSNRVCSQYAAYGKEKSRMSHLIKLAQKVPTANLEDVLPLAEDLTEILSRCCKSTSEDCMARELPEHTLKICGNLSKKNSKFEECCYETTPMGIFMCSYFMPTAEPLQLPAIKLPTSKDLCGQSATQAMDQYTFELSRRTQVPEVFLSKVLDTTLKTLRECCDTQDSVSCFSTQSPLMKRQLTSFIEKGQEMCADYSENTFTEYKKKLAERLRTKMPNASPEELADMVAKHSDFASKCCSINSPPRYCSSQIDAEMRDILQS
# Rattus norvegicus [30] = experiment: Ability to stimulate intestinal-calcium transport by the administration of compound in rats at a concentration of 50 pmol at 2 hr.; assay type: functional, Intestine
SMILES,Serosal/Mucosal Ca (Rattus norvegicus [1]),Serum Ca2+ (Rattus norvegicus [2]),Serum Ca2+ (Rattus norvegicus [3]),Serosal/Mucosal Ca (Rattus norvegicus [4]),Serosal/Mucosal Ca (Rattus norvegicus [5]),Serum Ca2+ (Rattus norvegicus [6]),Serum Ca2+ (Rattus norvegicus [7]),Serum Ca2+ (Rattus norvegicus [8]),Serum Ca2+ (Rattus norvegicus [9]),Serum Ca2+ (Rattus norvegicus [10]),Serum Ca2+ (Rattus norvegicus [11]),Serum Ca2+ (Rattus norvegicus [12]),Serum Ca2+ (Rattus norvegicus [13]),Serum Ca2+ (Rattus norvegicus [14]),Serum Ca2+ (Rattus norvegicus [15]),Serum Ca2+ (Rattus norvegicus [16]),Serosal/Mucosal Ca (Rattus norvegicus [17]),Serosal/Mucosal Ca (Rattus norvegicus [18]),Serosal/Mucosal Ca (Rattus norvegicus [19]),Serosal/Mucosal Ca (Rattus norvegicus [20]),other results
C=C1/C(=C\C=C2/CCC[C@]3(C)[C@@H]([C@H](C)CCC(F)(F)C(O)(CC)CC)CC[C@@H]23)C[C@@H](O)C[C@@H]1O,4.22,4.28 mg/dL,4.13 mg/dL,8.39,5.32,5.48 mg/dL,4.82 mg/dL,5.58 mg/dL,4.8 mg/dL,5.1 mg/dL,4.74 mg/dL,4.42 mg/dL,5 mg/dL,4.34 mg/dL,4.38 mg/dL,4.5 mg/dL,2.14,2.08,3.36,3.93,Serosal/Mucosal Ca (Rattus norvegicus [21]): 3.7; Serosal/Mucosal Ca (Rattus norvegicus [22]): 4.84; Serosal/Mucosal Ca (Rattus norvegicus [23]): 8.84; Serosal/Mucosal Ca (Rattus norvegicus [24]): 7.3; Serosal/Mucosal Ca (Rattus norvegicus [25]): 4.55; Serosal/Mucosal Ca (Rattus norvegicus [26]): 6.44; Serum Ca2+ (Rattus norvegicus [27]): 6.36 mg/dL; Serum Ca2+ (Rattus norvegicus [28]): 5.1 mg/dL; B50 (Gallus gallus): 495 pM; B50 [29]: 2.2 µM; Serosal/Mucosal Ca (Rattus norvegicus [30]): 2.27
C=C1/C(=C\C=C2/CCC[C@]3(C)[C@@H]([C@H](C)CCCC(C)(C)O)CC[C@@H]23)C[C@@H](O)C[C@@H]1O [CALCITRIOL],5.09,4.32 mg/dL,4.12 mg/dL,7,4.71,5.6 mg/dL,4.78 mg/dL,4.98 mg/dL,4.76 mg/dL,5.32 mg/dL,5 mg/dL,4.35 mg/dL,4.58 mg/dL,4.38 mg/dL,4.58 mg/dL,4.4 mg/dL,2.95,2.21,2.53,4.34,Serosal/Mucosal Ca (Rattus norvegicus [21]): 3.12; Serosal/Mucosal Ca (Rattus norvegicus [22]): 7.66; Serosal/Mucosal Ca (Rattus norvegicus [23]): 4.99; Serosal/Mucosal Ca (Rattus norvegicus [24]): 3.5; Serosal/Mucosal Ca (Rattus norvegicus [25]): 3.1; Serosal/Mucosal Ca (Rattus norvegicus [26]): 6.6; Serum Ca2+ (Rattus norvegicus [27]): 5.5 mg/dL; Serum Ca2+ (Rattus norvegicus [28]): 4.84 mg/dL; B50 (Gallus gallus): 72.5 pM; B50 [29]: 0.0453 µM; Serosal/Mucosal Ca (Rattus norvegicus [30]): 2.5
